Data set [1] has as its system hPLA2-II-induced neuronal cell death. As to the kind of experiment: MTT reduction assay of neuronal survival after hPLA2-II treatment. The data set is classed as cell-based, Sprague-Dawley rat. How it is done:
(§1) According to a method disclosed in Neurosci. Lett. 203, 175-178 Ueda K. et al, Neuronal cultures were prepared from cerebral cortex of 19-day-old Sprague-Dawley rat embryos. The cerebral cortices were dissociated in isotonic buffer (137 mM NaCl, 5.4 mM KCl, 0.17 mM Na2HPO4, 0.22 mM KH2PO4, 5.5 mM Glucose, 59 mM Sucrose; volume of each buffer is 25 ml) with 4 mg/ml trypsin and 0.4 mg/ml deoxyribonuclease I. Cells were plated at a density of 2.5×10^5 cells/cm^2 on poly-L-lysine coated dishes in conditioning medium, Leibovitz's L-15 medium supplemented with 5% fetal calf serum and 5% horse serum. Culture medium was exchanged for conditioning medium containing 0.1 mM arabinosylcytosine C on day 1 after plating. Cultured neurons were used for the experiments on day 2 of culture.
For assessment of neurotoxicity of hPLA2-II according to a method disclosed in Neurosci. […] Absorbance at 570 nm were measured with a microplate reader.
[…] MTT reducing activity was determined 48 hr after hPLA2-II-treatment.
At the indicated time after the treatment with hPLA2-II (1 μM), the compound prepared in Example 2 (final concentration=10 μM) was added to the culture medium. Data are expressed as mean±SEM values (n=4). *P<0.05, **P<0.01, compared with vehicle-treated conditions by ANOVA followed by Dunnett's test. […]
For orientation: Tetrazolium dyes change colour on reduction, which living cells bring about.

For data set [2] the following is noted: rats after transient middle cerebral artery occlusion; cited from earlier work.
A further data set has as its system cortical neurons. As to the kind of experiment: Ultrastructural changes in cortical neurons after hPLA2-II treatment (electron microscope). Format: cell-based, Sprague-Dawley rat. As to conditions: treated for 48 h. As to the method: as §1
Cells were treated with hPLA2-II for 48 h, and fixed in situ in 1-5% (especially 2.5%) glutaraldehyde in PBS for 2 h at 4° C. and post-fixed in 0.5-2% (especially 1% osmium tetraoxide). To increase contrast, cells were double-fixed in saturated thiocarbohydrazide-osmium. Afterwards, samples were dehydrated using a graded series of ethanol from 50-100%. Tissue culture dishes were embedded in Araldite or Epoxy resin (especially Epon 812), cured in vacuo for 48 h at 60-70° C. and sectioned. […]

For the molecule `CCc1c(C(=O)C(N)=O)c2c(OCC(=O)O)cccc2n1Cc1ccccc1` [Example 1, [[3-(2-Amino-1,2-dioxoethyl)-2-ethyl-1-(phenylmethyl)-1H-indol-4-yl]oxy]acetic acid], the “suppression of hPLA2-II-induced neuronal death (MTT reducing activity), co-treatment” value in data set [1] (3 μM hPLA2-II, 48 well-cultured neuron, FIG. 4) is recorded as “suppressed neuronal death completely depending on its concentration”. As to `CCc1c(C(=O)C(N)=O)c2c(OCC(=O)O)cccn2c1Cc1ccccc1-c1ccccc1` [Example 2, (8-(Carboxymethyloxy)-2-ethyl-3-(o-phenylbenzyl)indolizin-1-yl)glyoxylamide], the “time after hPLA2-II treatment within which post-treatment with compound suppressed neuronal death completely” value in data set [1] (1 μM hPLA2-II, compound added at 10 μM final concentration at indicated time after hPLA2-II, FIG. 3) was ≤ 10 h. With `CCN(CC)CCCC(C)Nc1c2ccc(Cl)cc2nc2ccc(OC)cc12` (centres unmarked) [quinacrine], in data set [2], the infarct-size result is reported as “reduces infarct-size”.

B1: hPLA2-II: human PLA2-II, used to induce neuronal death in cultured cortical neurons (protein, UniProt P14555 21-144, looked up)
Phospholipase A2, membrane …: NLVNFHRMIKLTTGKEAALSYGFYGCHCGVGGRGSPKDATDRCCVTHDCCYKRLEKRGCGTKFLSYKFSNSGSRITCAKQDSCRSQLCECDKAAATCFARNKTTYNKKYQYYSNKHCRGSTPRC
As for B1, in the data set on cortical neurons (compared with untreated neurons), the “morphology of neurons (cell bodies, neurites) after hPLA2-II treatment” value was “shrank cell bodies and lost their neurites”. In addition, in the data set with cortical neurons (electron microscope, compared with untreated cells, FIG. 1B), the “ultrastructural changes of neurons after hPLA2-II treatment” value was “condensation and fragmentation of nuclear chromatin, lost of intracellular organelle other than mitochondria and blebbing of plasma membranes”.

These data come from patent US20030149000A1, “Method for the treatment of disorders associated with apoptosis using N-heterocyclic glyoxylamide compounds” (Shionogi & Co., Ltd., priority 1998, published 2003).
